Measured values published in PubChem BioAssay (NCI).
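Method: 48-hour compound exposure of cells in 96-well plates, five concentrations, linear interpolation of endpoints. TGI marks complete inhibition of growth.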

Tests used:
Assay in all cases: NCI-60 cell line screen, 48 h
[1] = test system: ACHN renal
[2] = test system: UO-31 renal
[3] = test system: NCI-H522 lung
[4] = test system: OVCAR-8 ovarian
[5] = test system: SK-MEL-2 melanoma
[6] = test system: M14 melanoma
[7] = test system: NCI-H460 lung
[8] = test system: RPMI-8226 leukemia
[9] = test system: OVCAR-3 ovarian
[10] = test system: IGROV1 ovarian
[11] = test system: UACC-257 melanoma
[12] = test system: KM12 colon
[13] = test system: SK-OV-3 ovarian
[14] = test system: CCRF-CEM leukemia
[15] = test system: LXFL 529 NSCLC
[16] = test system: HT29 colon
[17] = test system: CAKI-1 renal
[18] = test system: HOP-92 NSCLC
[19] = test system: SF-268 CNS
[20] = test system: HCC-2998 colon
[21] = test system: SN12C renal
[22] = test system: SW-620 colon
[23] = test system: UACC-62 melanoma
[24] = test system: HL-60(TB) leukemia
[25] = test system: A498 renal
[26] = test system: KM20L2 colon
[27] = test system: SF-295 CNS
[28] = test system: LOX IMVI melanoma
[29] = test system: DMS 114 small cell lung
[30] = test system: A549 NSCLC
[31] = test system: HCT-116 colon
[32] = test system: SNB-75 CNS
[33] = test system: HOP-62 NSCLC
[34] = test system: HCT-15 colon
[35] = test system: XF 498 CNS
[36] = test system: OVCAR-4 ovarian
[37] = test system: RXF-631 renal
[38] = test system: MOLT-4 leukemia
[39] = test system: K-562 leukemia
[40] = test system: OVCAR-5 ovarian
[41] = test system: SK-MEL-5 melanoma
[42] = test system: NCI-H226 lung
[43] = test system: SNB-19 CNS
[44] = test system: SF-539 CNS
[45] = test system: MALME-3M melanoma
[46] = test system: DLD-1 colon
[47] = test system: 786-0 renal
[48] = test system: SR leukemia
[49] = test system: HOP-18 NSCLC
[50] = test system: SNB-78 CNS
[51] = test system: SK-MEL-28 melanoma
[52] = test system: EKVX NSCLC
[53] = test system: U251 CNS
[54] = test system: NCI-H23 lung
[55] = test system: TK-10 renal
[56] = test system: M19-MEL melanoma
[57] = test system: DMS 273 small cell lung
[58] = test system: COLO 205 colon
[59] = test system: RXF 393 renal

Measured: TGI

COC1(C)CC2N(C(=O)c3ccccc3)N=C(c3ccccc3)CC2(C)O1 (stereo unspecified)
> 100 µM: [1] | [2] | [3] | [4] | [5] | [6] | [7] | [8] | [9] | [10] | [11] | [12] | [13] | [14] | [15] | [16] | [17] | [18] | [19] | [20] | [21] | [22] | [23] | [24] | [25] | [26] | [27] | [28] | [29] | [30] | [31] | [32] | [33] | [34] | [35] | [36] | [37] | [38] | [39] | [40] | [41] | [42] | [43] | [44] | [45] | [46] | [47]

C[N+](C)(C)CC(=O)N/N=c1\cc(C(=O)Nc2ccc(N=O)cc2C#N)oc2cc(O)ccc12
> 100 µM: [48] | [1] | [49] | [2] | [3] | [4] | [5] | [6] | [7] | [9] | [10] | [50] | [11] | [12] | [13] | [14] | [15] | [16] | [51] | [17] | [18] | [19] | [52] | [20] | [21] | [22] | [23] | [24] | [25] | [53] | [54] | [55] | [56] | [26] | [27] | [28] | [57] | [29] | [30] | [31] | [32] | [33] | [34] | [35] | [58] | [36] | [37] | [59] | [38] | [39] | [40] | [41] | [42] | [43] | [44] | [45] | [46] | [47]

O=C1NC2(CCCC2)C(=O)C12CCCC2
> 100 µM: [48] | [1] | [49] | [2] | [3] | [4] | [5] | [6] | [7] | [8] | [9] | [10] | [50] | [11] | [12] | [13] | [14] | [15] | [16] | [51] | [17] | [18] | [19] | [52] | [21] | [22] | [23] | [24] | [25] | [53] | [54] | [55] | [56] | [27] | [28] | [57] | [30] | [31] | [32] | [33] | [34] | [35] | [58] | [36] | [37] | [59] | [38] | [39] | [40] | [41] | [43] | [44] | [45] | [46] | [47]
